Source: ChEMBL document CHEMBL3400064, “Synthesis and biological evaluation of 2-arylbenzimidazoles targeting Leishmania donovani” (Bioorg Med Chem Lett, 2015)

System: Leishmania donovani
Experiment: Antileishmanial activity against axenic amastigote Leishmania donovani MHOM/SD/1962/1S-Cl2d assessed as inhibition of parasite growth after 24 hrs at 50 uM by alamarBlue assay
Assay type: functional
Settings: not given

Row | Compound | inhibition at 50 µM [%]
1 | Cc1cccc(C(=O)Nc2cccc(-c3nc4ccccc4[nH]3)c2)c1 | 59
2 | O=C(Nc1cccc(-c2nc3ccccc3[nH]2)c1)c1cccc(C(F)(F)F)c1 | 83
3 | O=C(Nc1cccc(-c2nc3ccccc3[nH]2)c1)c1cccc(Cl)c1 | 57
4 | COC(=O)c1cccc(C(=O)Nc2cccc(-c3nc4ccccc4[nH]3)c2)c1 | 100
5 | Cc1ccccc1C(=O)Nc1cccc(-c2nc3ccccc3[nH]2)c1 | 55
6 | O=C(Nc1cccc(-c2nc3ccccc3[nH]2)c1)c1ccccc1C(F)(F)F | 82
7 | COc1ccccc1C(=O)Nc1cccc(-c2nc3ccccc3[nH]2)c1 | 75
8 | O=C(Nc1cccc(-c2nc3ccccc3[nH]2)c1)C1CCCCC1 | 68
9 | Cc1ccc2[nH]c(-c3cccc(NC(=O)c4cccs4)c3)nc2c1 | 77
10 | Cc1cccc2[nH]c(-c3cccc(NC(=O)c4cccs4)c3)nc12 | 83
11 | Cn1c(-c2cccc(NC(=O)c3cccs3)c2)nc2ccccc21 | 74
12 | O=C(Nc1cccc(-c2nc3ccccc3[nH]2)c1)c1ccccc1F | 74
13 | O=C(Nc1ccccc1-c1nc2ccccc2[nH]1)NC1CCCCC1 | 88
14 | O=C(Nc1cccc(-c2cc3ccccc3[nH]2)c1)c1cccs1 | 86
15 | CCn1c(-c2cccc(NC(=O)c3cccs3)c2)nc2ccccc21 | 87
16 | CCCn1c(-c2cccc(NC(=O)c3cccs3)c2)nc2ccccc21 | 86
17 | CN(C(=O)c1cccs1)c1cccc(-c2nc3ccccc3[nH]2)c1 | 40
18 | CCc1ccccc1C(=O)Nc1cccc(-c2nc3ccccc3[nH]2)c1 | 88
19 | O=C(Nc1cccc(-c2nc3ccccc3[nH]2)c1)c1ccccc1Cl | 79
20 | COc1ccc(C(=O)Nc2cccc(-c3nc4ccccc4[nH]3)c2)cc1 | 64
21 | O=C(Nc1cccc(-c2nc3ccccc3[nH]2)c1)c1ccc(F)cc1 | 69
22 | O=C(Nc1cccc(-c2nc3ccccc3[nH]2)c1)c1ccc(Cl)cc1 | 63
23 | O=C(Nc1cccc(-c2nc3ccccc3[nH]2)c1)c1ccc(-c2ccccc2)cc1 | 96
24 | Cc1cc(C)cc(C(=O)Nc2cccc(-c3nc4ccccc4[nH]3)c2)c1 | 88
25 | Cc1ccc(C)c(C(=O)Nc2cccc(-c3nc4ccccc4[nH]3)c2)c1 | 78
26 | COc1cc(OC)cc(C(=O)Nc2cccc(-c3nc4ccccc4[nH]3)c2)c1 | 83
27 | O=C(Nc1cccc(-c2nc3ccccc3[nH]2)c1)c1cc(Cl)cc(Cl)c1 | 97
28 | O=C(Nc1cccc(-c2nc3ccccc3[nH]2)c1)c1cc(Br)cc(Br)c1 | 72
29 | O=C(Nc1cccc(-c2nc3ccccc3[nH]2)c1)c1cccs1 | 66
30 | Cc1ccc(C(=O)Nc2cccc(-c3nc4ccccc4[nH]3)c2)cc1 | 82

System: Leishmania donovani
Experiment: Antileishmanial activity against axenic amastigote Leishmania donovani MHOM/SD/1962/1S-Cl2d assessed as inhibition of parasite growth after 24 hrs at 15 uM by alamarBlue assay
Assay type: functional
Settings: not given

Row | Compound | inhibition at 15 µM [%]
31 | Cc1cccc(C(=O)Nc2cccc(-c3nc4ccccc4[nH]3)c2)c1 | 52
32 | O=C(Nc1cccc(-c2nc3ccccc3[nH]2)c1)c1cccc(C(F)(F)F)c1 | 68
33 | O=C(Nc1cccc(-c2nc3ccccc3[nH]2)c1)c1cccc(Cl)c1 | 60
34 | COC(=O)c1cccc(C(=O)Nc2cccc(-c3nc4ccccc4[nH]3)c2)c1 | 74
35 | Cc1ccccc1C(=O)Nc1cccc(-c2nc3ccccc3[nH]2)c1 | 47
36 | O=C(Nc1cccc(-c2nc3ccccc3[nH]2)c1)c1ccccc1C(F)(F)F | 73
37 | COc1ccccc1C(=O)Nc1cccc(-c2nc3ccccc3[nH]2)c1 | 27
38 | O=C(Nc1cccc(-c2nc3ccccc3[nH]2)c1)C1CCCCC1 | 61
39 | Cc1ccc2[nH]c(-c3cccc(NC(=O)c4cccs4)c3)nc2c1 | 50
40 | Cc1cccc2[nH]c(-c3cccc(NC(=O)c4cccs4)c3)nc12 | 56
41 | Cn1c(-c2cccc(NC(=O)c3cccs3)c2)nc2ccccc21 | 56
42 | O=C(Nc1cccc(-c2nc3ccccc3[nH]2)c1)c1ccccc1F | 37
43 | O=C(Nc1ccccc1-c1nc2ccccc2[nH]1)NC1CCCCC1 | 65
44 | O=C(Nc1cccc(-c2cc3ccccc3[nH]2)c1)c1cccs1 | 33
45 | CCn1c(-c2cccc(NC(=O)c3cccs3)c2)nc2ccccc21 | 81
46 | CCCn1c(-c2cccc(NC(=O)c3cccs3)c2)nc2ccccc21 | 70
47 | CN(C(=O)c1cccs1)c1cccc(-c2nc3ccccc3[nH]2)c1 | 21
48 | CCc1ccccc1C(=O)Nc1cccc(-c2nc3ccccc3[nH]2)c1 | 52
49 | O=C(Nc1cccc(-c2nc3ccccc3[nH]2)c1)c1ccccc1Cl | 55
50 | COc1ccc(C(=O)Nc2cccc(-c3nc4ccccc4[nH]3)c2)cc1 | 52
51 | O=C(Nc1cccc(-c2nc3ccccc3[nH]2)c1)c1ccc(F)cc1 | 50
52 | O=C(Nc1cccc(-c2nc3ccccc3[nH]2)c1)c1ccc(Cl)cc1 | 41
53 | O=C(Nc1cccc(-c2nc3ccccc3[nH]2)c1)c1ccc(-c2ccccc2)cc1 | 80
54 | Cc1cc(C)cc(C(=O)Nc2cccc(-c3nc4ccccc4[nH]3)c2)c1 | 56
55 | Cc1ccc(C)c(C(=O)Nc2cccc(-c3nc4ccccc4[nH]3)c2)c1 | 28
56 | COc1cc(OC)cc(C(=O)Nc2cccc(-c3nc4ccccc4[nH]3)c2)c1 | 58
57 | O=C(Nc1cccc(-c2nc3ccccc3[nH]2)c1)c1cc(Cl)cc(Cl)c1 | 44
58 | O=C(Nc1cccc(-c2nc3ccccc3[nH]2)c1)c1cc(Br)cc(Br)c1 | 55
59 | O=C(Nc1cccc(-c2nc3ccccc3[nH]2)c1)c1cccs1 | 48
60 | Cc1ccc(C(=O)Nc2cccc(-c3nc4ccccc4[nH]3)c2)cc1 | 71

System: Leishmania donovani
Experiment: Antileishmanial activity against axenic amastigote Leishmania donovani MHOM/SD/1962/1S-Cl2d assessed as inhibition of parasite growth after 24 hrs at 5 uM by alamarBlue assay
Assay type: functional
Settings: not given

Row | Compound | inhibition at 5 µM [%]
61 | Cc1cccc(C(=O)Nc2cccc(-c3nc4ccccc4[nH]3)c2)c1 | 26
62 | O=C(Nc1cccc(-c2nc3ccccc3[nH]2)c1)c1cccc(C(F)(F)F)c1 | 17
63 | O=C(Nc1cccc(-c2nc3ccccc3[nH]2)c1)c1cccc(Cl)c1 | 26
64 | COC(=O)c1cccc(C(=O)Nc2cccc(-c3nc4ccccc4[nH]3)c2)c1 | 18
65 | Cc1ccccc1C(=O)Nc1cccc(-c2nc3ccccc3[nH]2)c1 | 22
66 | O=C(Nc1cccc(-c2nc3ccccc3[nH]2)c1)c1ccccc1C(F)(F)F | 22
67 | COc1ccccc1C(=O)Nc1cccc(-c2nc3ccccc3[nH]2)c1 | 23
68 | O=C(Nc1cccc(-c2nc3ccccc3[nH]2)c1)C1CCCCC1 | 41
69 | Cc1ccc2[nH]c(-c3cccc(NC(=O)c4cccs4)c3)nc2c1 | 36
70 | Cc1cccc2[nH]c(-c3cccc(NC(=O)c4cccs4)c3)nc12 | 32
71 | Cn1c(-c2cccc(NC(=O)c3cccs3)c2)nc2ccccc21 | 30
72 | O=C(Nc1cccc(-c2nc3ccccc3[nH]2)c1)c1ccccc1F | 24
73 | O=C(Nc1ccccc1-c1nc2ccccc2[nH]1)NC1CCCCC1 | 36
74 | O=C(Nc1cccc(-c2cc3ccccc3[nH]2)c1)c1cccs1 | 16
75 | CCn1c(-c2cccc(NC(=O)c3cccs3)c2)nc2ccccc21 | 24
76 | CCCn1c(-c2cccc(NC(=O)c3cccs3)c2)nc2ccccc21 | 25
77 | CN(C(=O)c1cccs1)c1cccc(-c2nc3ccccc3[nH]2)c1 | 3
78 | CCc1ccccc1C(=O)Nc1cccc(-c2nc3ccccc3[nH]2)c1 | 21
79 | O=C(Nc1cccc(-c2nc3ccccc3[nH]2)c1)c1ccccc1Cl | 23
80 | COc1ccc(C(=O)Nc2cccc(-c3nc4ccccc4[nH]3)c2)cc1 | 35
81 | O=C(Nc1cccc(-c2nc3ccccc3[nH]2)c1)c1ccc(F)cc1 | 32
82 | O=C(Nc1cccc(-c2nc3ccccc3[nH]2)c1)c1ccc(Cl)cc1 | 27
83 | O=C(Nc1cccc(-c2nc3ccccc3[nH]2)c1)c1ccc(-c2ccccc2)cc1 | 41
84 | Cc1cc(C)cc(C(=O)Nc2cccc(-c3nc4ccccc4[nH]3)c2)c1 | 22
85 | Cc1ccc(C)c(C(=O)Nc2cccc(-c3nc4ccccc4[nH]3)c2)c1 | 15
86 | COc1cc(OC)cc(C(=O)Nc2cccc(-c3nc4ccccc4[nH]3)c2)c1 | 32
87 | O=C(Nc1cccc(-c2nc3ccccc3[nH]2)c1)c1cc(Cl)cc(Cl)c1 | 28
88 | O=C(Nc1cccc(-c2nc3ccccc3[nH]2)c1)c1cc(Br)cc(Br)c1 | 29
89 | O=C(Nc1cccc(-c2nc3ccccc3[nH]2)c1)c1cccs1 | 39
90 | Cc1ccc(C(=O)Nc2cccc(-c3nc4ccccc4[nH]3)c2)cc1 | 23

System: not listed separately
Experiment: Cytotoxicity against mouse NIH/3T3 cells assessed as viability at 15 uM after 48 hrs by alamarBlue assay
Assay type: cell-based, NIH3T3
Settings: read-out: Activity

Row | Compound | viability at 48 h, 15 µM [%]
91 | O=C(Nc1cccc(-c2nc3ccccc3[nH]2)c1)C1CCCCC1 | 23.8
92 | Cc1ccc2[nH]c(-c3cccc(NC(=O)c4cccs4)c3)nc2c1 | 14.1
93 | Cc1cccc2[nH]c(-c3cccc(NC(=O)c4cccs4)c3)nc12 | 5.3
94 | Cn1c(-c2cccc(NC(=O)c3cccs3)c2)nc2ccccc21 | -12.9
95 | O=C(Nc1ccccc1-c1nc2ccccc2[nH]1)NC1CCCCC1 | -4.4
96 | COc1ccc(C(=O)Nc2cccc(-c3nc4ccccc4[nH]3)c2)cc1 | 54.1
97 | O=C(Nc1cccc(-c2nc3ccccc3[nH]2)c1)c1ccc(F)cc1 | -11.9
98 | O=C(Nc1cccc(-c2nc3ccccc3[nH]2)c1)c1ccc(-c2ccccc2)cc1 | 88.7
99 | O=C(Nc1cccc(-c2nc3ccccc3[nH]2)c1)c1cccs1 | -0.6

System: Leishmania donovani
Experiment: Antileishmanial activity against Leishmania donovani MHOM/SD/1962/1S-Cl2d infected THP1 cells assessed as inhibition of intracellular […] amastigote at 5 uM after 48 hrs at 50 uM by Bright-Glo luciferase assay
Assay type: functional, THP-1
Settings: not given

Row | Compound | inhibition (INH) [%]
100 | O=C(Nc1cccc(-c2nc3ccccc3[nH]2)c1)C1CCCCC1 | 19.8
101 | Cc1ccc2[nH]c(-c3cccc(NC(=O)c4cccs4)c3)nc2c1 | 4.1
102 | Cc1cccc2[nH]c(-c3cccc(NC(=O)c4cccs4)c3)nc12 | 46.4
103 | Cn1c(-c2cccc(NC(=O)c3cccs3)c2)nc2ccccc21 | 27.7
104 | O=C(Nc1ccccc1-c1nc2ccccc2[nH]1)NC1CCCCC1 | 22.2
105 | O=C(Nc1cccc(-c2nc3ccccc3[nH]2)c1)c1ccc(F)cc1 | 16
106 | O=C(Nc1cccc(-c2nc3ccccc3[nH]2)c1)c1cccs1 | 21.7

System: not listed separately
Experiment: Cytotoxicity against mouse NIH/3T3 cells assessed as viability after 48 hrs by alamarBlue assay
Assay type: cell-based
Settings: NIH3T3, 48 h

Row | Compound | IC50 [µM]
107 | O=C(Nc1cccc(-c2nc3ccccc3[nH]2)c1)C1CCCCC1 | 22.2
108 | Cc1ccc2[nH]c(-c3cccc(NC(=O)c4cccs4)c3)nc2c1 | 16.7
109 | Cc1cccc2[nH]c(-c3cccc(NC(=O)c4cccs4)c3)nc12 | > 300
110 | Cn1c(-c2cccc(NC(=O)c3cccs3)c2)nc2ccccc21 | 61.3
111 | O=C(Nc1ccccc1-c1nc2ccccc2[nH]1)NC1CCCCC1 | 42.2
112 | O=C(Nc1cccc(-c2nc3ccccc3[nH]2)c1)c1ccc(F)cc1 | 15.4
113 | O=C(Nc1cccc(-c2nc3ccccc3[nH]2)c1)c1cccs1 | 15

System: Leishmania donovani
Experiment: Antileishmanial activity against Leishmania donovani MHOM/SD/1962/1S-Cl2d infected THP1 cells assessed as inhibition of intracellular […] amastigote after 48 hrs at 50 uM by Bright-Glo luciferase assay
Assay type: functional, organism-based
Settings: THP-1, 48 h

Row | Compound | IC50 [µM]
114 | O=C(Nc1cccc(-c2nc3ccccc3[nH]2)c1)C1CCCCC1 | 8.8
115 | Cc1ccc2[nH]c(-c3cccc(NC(=O)c4cccs4)c3)nc2c1 | 10.5
116 | Cc1cccc2[nH]c(-c3cccc(NC(=O)c4cccs4)c3)nc12 | 17.8
117 | Cn1c(-c2cccc(NC(=O)c3cccs3)c2)nc2ccccc21 | 22.1
118 | O=C(Nc1ccccc1-c1nc2ccccc2[nH]1)NC1CCCCC1 | 7.6
119 | O=C(Nc1cccc(-c2nc3ccccc3[nH]2)c1)c1ccc(F)cc1 | 23.4
120 | O=C(Nc1cccc(-c2nc3ccccc3[nH]2)c1)c1cccs1 | 25.1
